# Data: US10316017B2, “COT modulators and methods of use thereof” (Gilead Sciences, Inc., priority 2015, dated 2019)
# Assays:
# [1] = system: TNFα production in LPS-stimulated human monocytes; experiment: Cot Monocyte TNFα Cell Based Assay; conditions: Homo sapiens, Monocyte, TNFα in LPS-stimulated human monocytes; read-out: EC50 TNF
# Outline: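 5,000 cells/well; cmpd 1 h, 37 °C, 0.5% DMSO final; LPS 50 pg/ml, 4 h, 37 °C; media TNFα by HTRF sandwich (cryptate/XL665), RT overnight; % control vs unstimulated/stimulated wells.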
# [2] = molecular target: T1, human Cot catalytic domain (30-397 amino acids) (Homo sapiens, UniProt P41279); experiment: High Throughput Cot Biochemical Assay (KinEASE TR-FRET); conditions: Cot KinEASE TR-FRET (HTRF) biochemical assay, 400 μM ATP; read-out: IC50 HTRF
# T1 construct: Purified recombinant human Cot catalytic domain (30-397 amino acids) was purchased from Cama Biosciences; purchased Cama Biosciences (so in the source)
# T1 sequence (P41279 30-397): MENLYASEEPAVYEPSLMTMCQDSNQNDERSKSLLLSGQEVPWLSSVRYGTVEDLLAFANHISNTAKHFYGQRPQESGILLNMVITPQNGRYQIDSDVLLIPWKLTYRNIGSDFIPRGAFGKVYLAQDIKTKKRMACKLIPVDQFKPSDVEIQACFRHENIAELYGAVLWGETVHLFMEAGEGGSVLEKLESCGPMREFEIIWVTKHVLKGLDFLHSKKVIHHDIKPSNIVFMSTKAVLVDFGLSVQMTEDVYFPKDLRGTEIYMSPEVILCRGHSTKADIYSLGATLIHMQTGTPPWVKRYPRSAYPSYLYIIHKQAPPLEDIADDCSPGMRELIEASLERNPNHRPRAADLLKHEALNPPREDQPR
# Outline: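 First, purified human Cot (aa 30-397) at 5 nM phosphorylates an XL665-labeled STK3 peptide (1 μM) at 400 μM ATP, pH 7.0, 0.1% DMSO. Then a europium-conjugated phospho-specific antibody binds the product, giving the TR-FRET signal.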
Compound,EC50 [1] [nM],IC50 [2] [nM]
"N#Cc1cnc2c(Cl)cc(N[C@@H](c3ccc(F)cc3)c3c[nH]nn3)cc2c1Nc1ccc(F)nc1 [Example 374, (S)-8-chloro-6-(((4-fluorophenyl)(1H-1,2,3-triazol-4-yl)methyl)amino)-4-((6-fluoropyridin-3-yl)amino)quinoline-3-carbonitrile]",3840,161
"Cc1cc(Nc2c(C#N)cnc3c(Cl)cc(N[C@@H](c4ccc(F)cc4)c4c[nH]nn4)cc23)cnc1F [Example 375, (S)-8-chloro-4-((6-fluoro-5-methylpyridin-3-yl)amino)-6-(((4-fluorophenyl)(1H-1,2,3-triazol-4-yl)methyl)amino) quinoline-3-carbonitrile]",1260,48
"N#Cc1cnc2c(Cl)cc(N[C@H](c3c[nH]nn3)c3ccccc3Cl)cc2c1Nc1cnc(F)c(F)c1 [Example 376, (S)-8-chloro-6-(((2-chlorophenyl)(1H-1,2,3-triazol-4-yl)methyl)amino)-4-((5,6-difluoropyridin-3-yl)amino)quinoline-3-carbonitrile]",1610,47
"N#Cc1cnc2c(Cl)cc(N[C@@H](c3ccc(F)cc3)c3cn(C(F)F)nn3)cc2c1Nc1cnc(F)c(F)c1 [Example 377, (S)-8-chloro-6-(((1-(difluoromethyl)-1H-1,2,3-triazol-4-yl)(4-fluorophenyl)methyl)amino)-4-((5,6-difluoropyridin-3-yl)amino)quinoline-3-carbonitrile]",> 10000,495
"N#Cc1cnc2c(Cl)cc(N[C@@H](c3ccc(F)cc3)c3cnn(C(F)F)n3)cc2c1Nc1cnc(F)c(F)c1 [Example 378, (S)-8-chloro-6-(((2-(difluoromethyl)-2H-1,2,3-triazol-4-yl)(4-fluorophenyl)methyl)amino)-4-((5,6-difluoropyridin-3-yl)amino)quinoline-3-carbonitrile]",> 10000,> 10000
"CC[C@@H](Nc1c(C#N)cnc2c(Cl)cc(N[C@@H](c3ccc(F)cc3)c3cn(C4(C(F)(F)F)CC4)nn3)cc12)c1ccccc1 [Example 379, 8-chloro-6-(((S)-(4-fluorophenyl)(1-(1-(trifluoromethyl)cyclopropyl)-1H-1,2,3-triazo1-4-yl)methyl)amino)-4-(((R)-1-phenylpropyl)amino)quinoline-3-carbonitrile]",191,30
"N#Cc1cnc2c(Cl)cc(N[C@@H](c3ccc(F)cc3)c3cn(C4CCOCC4)nn3)cc2c1Nc1cnc(F)c(F)c1 [Example 380, (S)-8-chloro-4-((5,6-difluoropyridin-3-yl)amino)-6-(((4-fluorophenyl) (1-(tetrahydro-2H-pyran-4-yl)-1H-1,2,3-triazol-4-yl)methyl)amino)quinoline-3-carbonitrile]",1280,78
"[2H][C@](Nc1cc(Cl)c2ncc(C#N)c(Nc3cnc(F)c(F)c3)c2c1)(c1ccc(F)cc1)c1cn(C(C)(C)C)nn1 [Example 381, (S)-6-(((1-(tert-butyl)-1H-1,2,3-triazol-4-yl)(4-fluorophenyl)methyl-d)amino)-8-chloro-4-((5,6-difluoropyridin-3-yl)amino)quinoline-3-carbonitrile]",644,44
"[2H][C@](Nc1cc(Cl)c2ncc(C#N)c(Nc3cnc(F)c(F)c3)c2c1)(c1ccc(F)cc1)c1cn(C2CC2)nn1 [Example 382, (S)-8-chloro-6-(((1-cyclopropyl-1H-1,2,3-triazol-4-yl)(4-fluorophenyl)methyl-d)amino)-4-((5,6-difluoropyridin-3-yl)amino)quinoline-3-carbonitrile]",323,8
"CC(C)n1cc([C@@H](Nc2cc(Cl)c3ncc(C#N)c(Nc4ccc(F)c(Cl)c4)c3c2)c2cccc(S(=O)(=O)N(C)C)c2)nn1 [Example 383, (S)-3-(((8-chloro-4-((3-chloro-4-fluorophenyl)amino)-3-cyanoquinolin-6-yl)amino)(1-isopropyl-1H-1,2,3-triazol-4-yl)methyl)-N,N-dimethylbenzenesulfonamide]",148,11
"N#Cc1cnc2c(Cl)cc(N[C@@H](c3ccc(F)cc3)c3cn(CC4(O)CC4)nn3)cc2c1Nc1cnc(F)c(F)c1 [Example 384, (S)-8-chloro-4-((5,6-difluoropyridin-3-yl)amino)-6-(((4-fluorophenyl)(1-((1-hydroxycyclopropyl)methyl)-1H-1,2,3-triazol-4-yl)methyl)amino)quinoline-3-carbonitrile]",832,8
"CC(C)n1cc([C@@H](Nc2cc(Cl)c3ncc(C#N)c(Nc4cnc(F)c(F)c4)c3c2)c2cccc(-c3nccn3C)c2)nn1 [Example 385, (S)-8-chloro-4-((5,6-difluoropyridin-3-yl)amino)-6-(((1-isopropyl-1H-1,2,3-triazol-4-yl)(3-(1-methyl-1H-imidazol-2-yl)phenyl)methyl)amino) quinoline-3-carbonitrile]",692,4
"Cn1ccnc1-c1cccc([C@H](Nc2cc(Cl)c3ncc(C#N)c(Nc4cnc(F)c(F)c4)c3c2)c2c[nH]nn2)c1 [Example 386, (S)-8-chloro-4-((5,6-difluoropyridin-3-yl)amino)-6-(((3-(1-methyl-1H-imidazol-2-yl)phenyl)(1H-1,2,3-triazol-4-yl)methyl)amino)quinoline-3-carbonitrile]",1440,5
"[2H][C@](Nc1cc(Cl)c2ncc(C#N)c(Nc3cnc(F)c(F)c3)c2c1)(c1ccc(Cl)cc1)c1c[nH]nn1 [Example 387, (S)-8-chloro-6-(((4-chlorophenyl)(1H-1,2,3-triazol-4-yl)methyl-d)amino)-4-((5,6-difluoropyridin-3-yl)amino)quinoline-3-carbonitrile]",809,50
"N#Cc1cnc2c(Cl)cc(N[C@@H](c3ccc(F)cc3)c3cn(-c4ccncc4)nn3)cc2c1Nc1cnc(F)c(F)c1 [Example 388, (S)-8-chloro-4-((5,6-difluoropyridin-3-yl)amino)-6-(((4-fluorophenyl)(1-(pyridin-4-yl)-1H-1,2,3-triazol-4-yl)methyl)amino)quinoline-3-carbonitrile]",1260,83
"N#Cc1cnc2c(Cl)cc(N[C@@H](c3ccc(F)cc3)c3cn(-c4cccnc4)nn3)cc2c1Nc1cnc(F)c(F)c1 [Example 389, (S)-8-chloro-4-((5,6-difluoropyridin-3-yl)amino)-6-(((4-fluorophenyl) (1-(pyridin-3-yl)-1H-1,2,3-triazol-4-yl)methyl)amino)quinoline-3-carbonitrile]",817,37
"CC[C@@H](Nc1c(C#N)cnc2c(Cl)cc(N[C@@H](c3ccc(F)cc3)c3cn(-c4ccncc4)nn3)cc12)c1ccccc1 [Example 390, 8-chloro-6-(((S)-(4-fluorophenyl)(1-(pyridin-4-yl)-1H-1,2,3-triazol-4-yl)methyl)amino)-4-(((R)-1-phenylpropyl)amino)quinoline-3-carbonitrile]",318,30
"CC[C@@H](Nc1c(C#N)cnc2c(Cl)cc(N[C@@H](c3ccc(F)cc3)c3cn(-c4cccnc4)nn3)cc12)c1ccccc1 [Example 391, 8-chloro-6-(((S)-(4-fluorophenyl)(1-(pyridin-3-yl)-1H-1,2,3-triazol-4-yl)methyl)amino)-4-(((R)-1-phenylpropyl)amino)quinoline-3-carbonitrile]",214,17
"CC(C)(C)CNc1c(C#N)cnc2c(Cl)cc(N[C@@H](c3ccc(F)cc3)c3cn(-c4ccncc4)nn3)cc12 [Example 393, (S)-8-chloro-6-(((4-fluorophenyl)(1-(pyridin-4-yl)-1H-1,2,3-triazol-4-yl)methyl)amino)-4-(neopentylamino)quinoline-3-carbonitrile]",333,179
"CC(C)(C)CNc1c(C#N)cnc2c(Cl)cc(N[C@@H](c3ccc(F)cc3)c3cn(-c4cccnc4)nn3)cc12 [Example 394, (S)-8-chloro-6-(((4-fluorophenyl)(1-(pyridin-3-yl)-1H-1,2,3-triazol-4-yl)methyl)amino)-4-(neopentylamino)quinoline-3-carbonitrile]",160,36
"CC(C)(C)CNc1c(C#N)cnc2c(Cl)cc(N[C@@H](c3ccc(F)cc3)c3cn(-c4ccccc4)nn3)cc12 [Example 395, (S)-8-chloro-6-(((4-fluorophenyl)(1-phenyl-1H-1,2,3-triazol-4-yl)methyl)amino)-4-(neopentylamino)quinoline-3-carbonitrile]",273,47
"CCC(Nc1c(C#N)cnc2c(Cl)cc(N[C@@H](c3ccc(F)cc3)c3c[nH]nn3)cc12)c1ccccc1F (stereo partly drawn) [Example 397, 8-chloro-6-(((S)-(4-fluorophenyl)(1H-1,2,3-triazol-4-yl)methyl)amino)-4-((1-(2-fluorophenyl)propyl)amino) quinoline-3-carbonitrile]",726,125
"CC1(CNc2c(C#N)cnc3c(Cl)cc(N[C@@H](c4ccc(F)cc4)c4c[nH]nn4)cc23)CCOCC1 [Example 398, (S)-8-chloro-6-(((4-fluorophenyl)(1H-1,2,3-triazol-4-yl)methyl)amino)-4-(((4-methyltetrahydro-2H-pyran-4-yl)methyl)amino)quinoline-3-carbonitrile]",1050,28
